Active and inactive are the calls of the source. No rule for the calls is given here.
Biological target: Toxin B (TcdB) glycohydrolase, Clostridioides difficile 630
Test: TcdB glycohydrolase inhibitors, dose response, biochemical, cherry-pick, plate reader (AID 720512)
Details: recombinant TcdB glycohydrolase activity

Row | Compound | activity change, negative = inhibition (at 19.5 µM (top of the series)) | also measured
1 | CC1C(c2ccc3c(c2)OCO3)c2cc3c(cc2OC1N1CCOCC1)OCO3 (stereo not drawn) | inactive | 
2 | CS(=O)(=O)N1CCc2cc(C(=O)Nc3ccc(O)cc3)ccc21 | inactive | 
3 | Cc1ccc(-c2nc3ccc([N+](=O)[O-])cc3[nH]2)cc1 | inactive | 
4 | Oc1ccc(CCNc2ncnc3ccc(Cl)cc23)cc1 | inactive | 
5 | CN(C)c1ccc(C(=S)N2CCN(C(=S)Nc3ccc(Cl)cc3)CC2)cc1 | inactive | 
6 | Cc1cccc2sc(NNC(=O)C3COc4ccccc4O3)nc12 (stereo not drawn) | inactive | 
7 | CN1CCN(CC(=O)Nc2cc(N(C)C)nc3ccccc23)CC1 | inactive | 
8 | Cc1ccc2nc(-c3ccc4c(c3)OCCO4)cn2c1 |  | AC50: > 39 µM (inactive)
9 | CCN(CC)S(=O)(=O)c1cc(C(=O)Nc2cccnc2Cl)ccc1Cl | inactive | 
10 | O=C(OCn1nnc2ccccc2c1=O)c1cc2ccccc2o1 | inactive | 
11 | Cc1ccc(C(=O)Nc2ncc([N+](=O)[O-])s2)cc1 | inactive | 
12 | Cc1nn(C)cc1-c1n[nH]c(=S)n1-c1ccc(F)cc1 | inactive | 
13 | S=C(c1cn(Cc2ccccc2)c2ccccc12)N1CCOCC1 | inactive | 
14 | Cc1cc(C)c(NS(=O)(=O)c2cccc3cccnc23)c(C)c1 | inactive | 
15 | COc1cccc2sc(NNC(=O)C3COc4ccccc4O3)nc12 (stereo not drawn) | inactive | 
16 | NC(=O)NN=C1CC2CC1C1C=CCC21 (stereo not drawn) | inactive | 
17 | COc1ccc(Br)cc1C(=O)Nc1ccc(O)cc1 | inactive | 
18 | Cc1cnc(C(=O)OCC(=O)N2C(C)CCCC2C)cn1 (stereo not drawn) | inactive | 
19 | CO[C@@H]1CN(C)C(=O)c2cc(NC(=O)NC(C)C)ccc2OC[C@@H](C)N(S(C)(=O)=O)C[C@H]1C |  | activity change, negative = inhibition (at 3.5 µM (top of the series)): inactive
20 | Nc1ccc(-c2nc3ccc(N)cc3o2)cc1 | inactive | 
21 | O=C(COc1ncnc2ccccc12)NCCc1ccc(F)cc1 | inactive | 
22 | Cc1ccccc1S(=O)(=O)N1CCCc2nc(C)c(C)cc21 | inactive | 
23 | COc1ccc(NC(=O)CN(C)C(=O)c2cccc(NS(=O)(=O)c3ccc(Br)cc3)c2)cc1 | inactive | 
24 | Cc1cccc(-n2nnc(C(=O)NCc3ccccc3Cl)c2N)c1 | inactive | 

Row | Compound | activity change, negative = inhibition (at 19.5 µM (top of the series)) | also measured
25 | COc1cc(Cc2ccc(N)c(OC)c2)ccc1N | inactive | 
26 | COc1ccc(-c2nc(N)ncc2-c2ccccc2OC)c(O)c1 | inactive | 
27 | Cc1ccc(C(=O)Nc2ccc(O)cc2C(=O)O)cc1C | inactive | 
28 | CC(C)OC(=O)C(=O)NNc1ccccc1 | inactive | 
29 | COc1ccc(C2=NS(=O)(=O)N(C)C(C(=O)N3CCc4ccccc4C3)=C2)cc1OC | inactive | 
30 | CCCNC(=O)C1(C)CCCN(C(=O)c2ccccc2OC(F)(F)F)C1 (stereo not drawn) | inactive | 
31 | O=c1[nH][nH]c(=O)c2c1[nH]c(=S)n2Cc1ccccc1 | inactive | 
32 | O=C(COc1ccccc1)Nc1ccc(S(=O)(=O)Nc2ncccn2)cc1 | inactive | 
33 | CC(=O)C[C@H]1c2ccccc2S(=O)(=O)N1C1CCCCC1 | inactive | 
34 | Oc1ccc(Nc2nc(Cl)nc(NCc3ccco3)n2)cc1 |  | AC50: 21.7 µM
35 | COc1cc2nncc(SC)c2cc1OC | inactive | 
36 | CC1CCCN(C(=S)Nc2ccc(F)cc2)C1 (stereo not drawn) | inactive | 
37 | COc1ccc(OC)c2sc(NNC(=O)C3COc4ccccc4O3)nc12 (stereo not drawn) | inactive | 
38 | CCc1cc(/C(Cc2ccccn2)=N\O)c(O)cc1O | inactive | 
39 | CN(c1ccccc1)S(=O)(=O)c1cccc(C(=O)NCCc2ccc(O)c(O)c2)c1 | inactive | 
40 | COc1ccc(C2=NS(=O)(=O)N(C)C(C(=O)NCc3ccc(F)cc3)=C2)cc1OC | inactive | 
41 | Cn1c(=O)[nH]c(=O)c2c1[nH]c(=S)n2CCCc1ccccc1 | inactive | 
42 | Oc1ccc(-c2nccs2)cc1 | inactive | 
43 | O=C(c1cn(-c2ccccc2)nc1-c1ccncc1)n1nnc2ccccc21 | inactive | 
44 | COc1ccc(C(=O)NC(CC(=O)O)c2cc([N+](=O)[O-])ccc2Cl)c(SC)c1 (stereo not drawn) | inactive | 
45 | Fc1ccc(-c2nc3ccc(Br)cn3c2Cc2ccccc2)cc1 | inactive | 
46 | Cc1cc(C)c2sc(NNC(=O)C3COc4ccccc4O3)nc2c1 (stereo not drawn) | inactive | 
47 | NC(=O)CC(NC(=O)c1ccccc1)c1ccc(NCCc2ccc(F)cc2)c([N+](=O)[O-])c1 (stereo not drawn) | inactive | 
48 | COCCN(C(=O)C(C)C)c1nnc(-c2ccc(C(C)(C)C)cc2)s1 | inactive | 

Row | Compound | activity change, negative = inhibition (at 19.5 µM (top of the series)) | also measured
49 | COc1ccc(C=C2CCC3C(=O)CCCC3(C)C2=O)cc1 (stereo not drawn) | inactive | 
50 | COc1ccccc1C=C1SC(=S)NC1=O | inactive | 
51 | Cc1ccc(S(=O)(=O)Oc2ccc(/C=N/NC(=O)c3nn(C)cc3[N+](=O)[O-])cc2)cc1 | inactive | 
52 | O=S(=O)(c1ccccc1)N1CCN=C1SCc1ccccc1 | inactive | 
53 | O=c1ccc2cc(O)c(O)cc2o1 | inactive | 
54 | COc1ccccc1C(=O)Nc1cccc(Oc2c(F)c(F)c(F)c(F)c2F)c1 | inactive | 
55 | Cc1nc(SCC(=O)N2CCNC2=O)c(C#N)c(C)c1C | inactive | 
56 | CS(=O)(=O)N(CC(=O)Nc1ccc(S(=O)(=O)N2CCOCC2)cc1)c1ccccc1Br | inactive | 
57 | Cc1cc(C(=O)CSc2nnnn2-c2ccccc2)c(C)n1-c1ccc2c(c1)OCO2 | inactive | 
58 | Cc1cc(C)c2nc(C)cc(N/N=C/c3ccc(O)cc3)c2c1 |  | AC50: > 39 µM (inactive)
59 | C[C@H](CO)N1C[C@H](C)[C@@H](CN(C)C(=O)Nc2ccc(C(F)(F)F)cc2)Oc2ccc(NC(=O)C3CCCCC3)cc2C1=O | inactive | 
60 | COc1cc(-c2n[nH]c(=S)n2/N=C/c2cccn2C)cc(OC)c1OC | inactive | 
61 | O=C(CSc1nnc(-c2ccncc2)o1)N1CCCCCC1 | inactive | 
62 | C[C@@H]1CN([C@@H](C)CO)C(=O)c2c(c3ccccc3n2C)-c2ccccc2CO[C@@H]1CN(C)C |  | activity change, negative = inhibition (at 21 µM (top of the series)): inactive
63 | Cc1nc(S(=O)(=O)N(C)Cc2ccccc2)c(C#N)c(C)c1Cl | inactive | 
64 | CNC(=O)C1CCN(S(=O)(=O)c2c(C)noc2/C=C/c2cccc(OC)c2)CC1 | inactive | 
65 | O=c1c2ccccc2nc(/C=C/c2ccc(O)cc2)n1-c1ccccc1O | inactive | 
66 | Cc1cc(NC(=O)CCCN2C(=O)c3cccc4cccc(c34)C2=O)no1 | inactive | 
67 | O=[N+]([O-])c1ccc(S(=O)(=O)Nc2nc(-c3ccccc3)cs2)cc1 | inactive | 
68 | CCc1[nH]c(=O)c(C#N)c2c1CCCC2 | inactive | 
69 | CNC(=O)C1CCN(S(=O)(=O)c2c(C)noc2/C=C/c2ccc(OC)cc2)CC1 | inactive | 
70 | COc1ccc(/C=N/N=C2/NC(=O)C(CC(=O)NC(N)=O)S2)cc1 (stereo not drawn) | inactive | 
71 | O=C(Nc1ccc2c(c1)OCCO2)c1cc2ccccc2o1 | inactive | 
72 | Nc1ccc(C(=O)c2ccc3c(c2)OCCO3)cc1N | inactive | 

Row | Compound | activity change, negative = inhibition (at 19.5 µM (top of the series)) | also measured
73 | COc1cc(NC(=O)CSc2nc3[nH]ncc3c(=O)n2-c2ccccc2C)cc(OC)c1OC | inactive | 
74 | O=c1c(OC2OC(CO)C(O)C(O)C2O)c(-c2ccc(O)c(O)c2)oc2cc(O)cc(O)c12 (stereo not drawn) |  | activity change, negative = inhibition (at 10 µM (top of the series)): inactive
75 | O=C(CN1C(=O)NC2(CCCc3ccccc32)C1=O)NCc1cccs1 (stereo not drawn) | inactive | 
76 | CCCCN(C)c1c(C)nc2ccc(C(=O)NCc3cccs3)cn12 | inactive | 
77 | Cc1ccc2c(C)c3ccc4ccccc4c3c[n+]2c1 | inactive | 
78 | CCOc1ccc(/C=N/n2nnnc2N)cc1O |  | AC50: > 39 µM (inactive)
79 | COc1ccc(-c2ccc3c(c2)[C@@H]2[C@@H](CCN2C(=O)CN2CCOCC2)[C@H](CO)N3)cc1 | inactive | 
80 | COC(=O)C1=C(c2ccc(F)cc2OCc2ccccc2)C[C@@H]2CC[C@H]1N2C(=O)NCCOc1ccccc1 | inactive | 
81 | Clc1cccc(-c2ccc3ncnc(NCc4cccs4)c3c2)c1 | inactive | 
82 | Nc1cc(N)cc(C(=O)OCC(=O)Nc2cc(S(=O)(=O)N3CCCCC3)ccc2Cl)c1 | inactive | 
83 | COc1ccc(C(=O)N2CCOCC2)cc1S(=O)(=O)N1CCCc2ccccc21 | inactive | 
84 | O=C(C[C@H]1CC[C@@H]2[C@H](COC[C@@H](O)CN2C(=O)Nc2ccc(Cl)c(Cl)c2)O1)NCc1ccncc1 | inactive | 
85 | CCn1c(SCC(=O)OC)nnc1-c1ccccc1 | inactive | 
86 | COc1ccc(NS(=O)CCCc2ccccc2)cc1 (stereo not drawn) | inactive | 
87 | COc1c2ccc(C(=O)NCCCCc3ccccc3)cc2nn1C | inactive | 
88 | CCOC(=O)C(=O)NNc1ccc(Cl)cc1 | inactive | 
89 | O=C(OCC(=O)N1CCCc2ccccc21)c1ccc(C(F)(F)F)cc1 | inactive | 
90 | Cc1ccn(CCC(=O)NC2CC(C)(C)Cc3c2cnn3-c2ccccc2C)n1 (stereo not drawn) | inactive | 
91 | O=C(O)C1CCC(CN(Cc2cccc(Br)c2)C(=S)Nc2ccccc2F)CC1 (stereo not drawn) | inactive | 
92 | CSc1nc(Cl)cc(Nc2ccc(O)cc2)n1 | inactive | 
93 | Cc1cscc1-c1nc(NCC2CC2)nc2ccsc12 | inactive | 
